Laboratory results as given in patent US20240217946A1, “ANTIDEPRESSANT AND ANXIOLYTIC SUBSTITUTED CINNAMAMIDE COMPOUND” (TASLY PHARMACEUTICAL GROUP CO., LTD., priority 2021, published 2024).
Where “and” joins values, the source holds several entries; their conditions need not be identical. Equal values may be shown once. Read-outs that look alike come from different tables or passages of the source.

Tests used:
[1] = test system: 5-HT reuptake in rat brain synaptosomes; test: 3H-5-HT reuptake by rat brain synaptosomes; format: biochemical; conditions: 3H-5HT 10 nM, read-out: 5-HT inhibition rate % IC50
Source text: (§1) At present, it is believed that absolute or relative deficiencies of the central monoamine neurotransmitters 5-hydroxytryptamine (5-HT), norepinephrine (NA) and dopamine (DA) are closely related to depression and anxiety.
(§2) Synaptosomes were separated using methods in literature to prepare brain synaptosomes. SD rats were rapidly decapitated with a small animal decapitator. After decapitation, brains were taken out quickly and precooled in an ice-water mixture, and the pia mater and vascular tissue were removed. Brain tissue was taken out. 10 times volume (ml/g) of 10 mM Tris HCl buffer (containing 0.32 M sucrose, pH 7.4) was added, an ultrasonic cell pulverizer was used for homogenization (maintaining at a low temperature), and the brain tissue was homogenized and centrifuged for 10 min (4° C., 1,000 g). After balanced centrifugation (1500 g, 10 min) at 4° C., precipitate was discarded, then supernatant was taken, and centrifugation (20000 g) was performed again for 30 min. The supernatant was discarded and the precipitate, i.e. crude extract of synaptic corpuscles, was retained. […]
(§3) The percentage inhibition of isotope ligand binding by each compound was calculated according to the following equation: […]

[2] = test system: NA reuptake in rat brain synaptosomes; test: 3H-NA reuptake by rat brain synaptosomes; format: biochemical; conditions: 3H-NA 10 nM, rat brain synaptosomes; read-out: NA inhibition rate % IC50
Source text: as §1
as §2, with “retained. The precipitate was further suspended in 0.32 M cold sucrose solution and then carefully laid on 1.2 M and 0.8 M (10 ml each) cold sucrose gradient solutions which had been laid sequentially on the bottom of the tube, followed by balanced centrifugation (38000 g) at 4 °C for 60 min. A suspension band at the 0.8-1.2 M sucrose interface was carefully collected with a puncture needle, which was placed in 10 ml of 0.32 M cold sucrose solution and mixed well, and equilibrium centrifuged (20000 g) at 4 °C for 30 min. The precipitate was refined brain synaptosomes.” for “retained.”
as §3

[3] = Pharmacokinetics and absolute bioavailability in rats (LC-MS/MS); format: in vivo; conditions: rat; for MRT inf: read-out: MRT0-∞
Source text: A LC-MS/MS method for determination of compound I-5 and compound M2 in rat plasma was established through experiments to investigate the pharmacokinetic characteristics and absolute bioavailability of compounds in rats.
20 SPF-grade SD male rats (body weight 220±20 g), purchased from Beijing Vital River Laboratory Animal Technology Co., Ltd.
• Chromatographic column: waters BEH C18 1.7 μm; 2.1×100 mm Column • Internal standard: D-I-5 (deuterated compound I-5, with the following structural formula)
20 SD rats were randomly divided into 4 groups, with 5 rats in each group. […]
50 μL plasma was taken, 50 μL D-I-5 (20 ng/mL dissolved in acetonitrile) was added, the mixture was whirled for 30 s, then 100 μL acetonitrile was added; the mixture was fully whirled for 2 min, and was centrifuged at 4° C. at 12000 r/min for 3 min, 50 μL supernatant was taken, 50 μL aqueous solution was added for dilution, followed by whirling for Imin, and 4 μL sample was injected.
The mean plasma concentration-time curves of rats after oral intragastric administration and intravenous administration were respectively shown in FIGS. 8 and 9. Data were processed using DAS 3.0 pharmacokinetic software (Chinese Professional Committee of Mathematical Pharmacology, Shanghai, China), and statistical moment parameters of the non-compartmental model were calculated, Cmax and Tmax being measured values.

[4] = male, SD, plasma, po, intragastric administration 12.5 mg/kg, n = 5
[5] = male, SD, plasma, intravenous administration 2.5 mg/kg, n = 5
[6] = male, Sprague-Dawley (SD), plasma, po, intragastric administration 12.5 mg/kg, n = 5
[7] = male, Sprague-Dawley (SD), plasma, intravenous administration 2.5 mg/kg, n = 5

CC(C)CNC(=O)/C=C/c1cc2c(c(C(F)(F)F)c1)OCO2 [Compound I-5]
IC50 [1]: 18.5 ± 2.47 nM | IC50 [2]: 17.2 ± 1.59 nM | bioavailability ([3]; male, SD, plasma, oral, absolute bioavailability, intragastric 12.5 mg/kg vs intravenous 2.5 mg/kg, read-out: F (bioavailability, %)): 24.1% | AUC(0-t) [3, 4]: 523 ± 433 ng·h/mL | Tmax [3, 4]: 21 min | half-life [3, 4]: 55.8 ± 22.8 min | C0 [3, 5]: 2050 ± 907 ng/mL | half-life [3, 5]: 39.6 ± 4.2 min | concentration at 0.08 h ([3]; male, SD, plasma, iv, 2.5 mg/kg, single intravenous 2.5 mg/kg, 0.08 h, read-out: Plasma concentration, Mean): 1150 ng/mL | concentration at 0.25 h ([3]; male, SD, plasma, iv, 2.5 mg/kg, single intravenous 2.5 mg/kg, 0.25 h, read-out: Plasma concentration, Mean): 393 ng/mL | concentration at 0.5 h ([3]; male, SD, plasma, iv, 2.5 mg/kg, single intravenous 2.5 mg/kg, 0.50 h): 152 ng/mL | concentration at 1 h ([3]; male, SD, plasma, iv, 2.5 mg/kg, single intravenous 2.5 mg/kg, 1 h, read-out: Plasma concentration, Mean): 60.3 ng/mL | concentration at 2 h ([3]; male, SD, plasma, iv, 2.5 mg/kg, single intravenous 2.5 mg/kg, 2 h): 16.8 ng/mL | concentration at 3 h ([3]; male, SD, plasma, iv, 2.5 mg/kg, single intravenous 2.5 mg/kg, 3 h): 6.9 ng/mL | concentration at 4 h ([3]; male, SD, plasma, iv, 2.5 mg/kg, single intravenous 2.5 mg/kg, 4 h, read-out: Plasma concentration, Mean): 3 ng/mL | concentration at 4 h ([3]; male, SD, plasma, iv, 2.5 mg/kg, single intravenous 2.5 mg/kg, 4 h, read-out: Plasma concentration, individual rats): 3.01 ng/mL | concentration at 0.08 h ([3]; male, SD, plasma, oral, 12.5 mg/kg, single intragastric 12.5 mg/kg, 0.08 h, read-out: Plasma concentration, Mean): 118 ng/mL | concentration at 0.25 h ([3]; male, SD, plasma, oral, 12.5 mg/kg, single intragastric 12.5 mg/kg, 0.25 h, read-out: Plasma concentration, Mean): 367 ng/mL | concentration at 0.5 h ([3]; male, SD, plasma, oral, 12.5 mg/kg, single intragastric 12.5 mg/kg, 0.50 h): 334 ng/mL | concentration at 1 h ([3]; male, SD, plasma, oral, 12.5 mg/kg, single intragastric 12.5 mg/kg, 1 h, read-out: Plasma concentration, Mean): 266 ng/mL | concentration at 2 h ([3]; male, SD, plasma, oral, 12.5 mg/kg, single intragastric 12.5 mg/kg, 2 h): 109 ng/mL | concentration at 3 h ([3]; male, SD, plasma, oral, 12.5 mg/kg, single intragastric 12.5 mg/kg, 3 h): 44.4 ng/mL | concentration at 4 h ([3]; male, SD, plasma, oral, 12.5 mg/kg, single intragastric 12.5 mg/kg, 4 h, read-out: Plasma concentration, Mean): 15.3 ng/mL | concentration at 6 h ([3]; male, SD, plasma, oral, 12.5 mg/kg, single intragastric 12.5 mg/kg, 6 h): 6.6 ng/mL | Cmax ([3]; male, SD, plasma, po, 12.5 mg/kg, intragastric administration 12.5 mg/kg, n = 5, read-out: Cmax): 361 ± 258 ng/mL | AUC(0-inf) [3, 6]: 659 ± 371 ng·h/mL | MRT inf [3, 6]: 69.6 ± 7.2 min | AUC(0-inf) [3, 7]: 438 ± 139 ng·h/mL | AUC(0-t) [3, 7]: 436 ± 138 ng·h/mL | MRT inf [3, 7]: 22.2 ± 6.6 min | Plasma concentration, individual rats ([3]; single intragastric 12.5 mg/kg, 0.08 h): 140 ng/mL and 3.59 ng/mL and 70.1 ng/mL and 214 ng/mL and 164 ng/mL | Plasma concentration, individual rats ([3]; single intragastric 12.5 mg/kg, 0.25 h): 706 ng/mL and 7.11 ng/mL and 371 ng/mL and 389 ng/mL and 361 ng/mL | Plasma concentration, individual rats ([3]; single intragastric 12.5 mg/kg, 0.50 h): 735 ng/mL and 4.71 ng/mL and 416 ng/mL and 268 ng/mL and 246 ng/mL | Plasma concentration, individual rats ([3]; single intragastric 12.5 mg/kg, 1 h): 450 ng/mL and BQL and 391 ng/mL and 92.3 ng/mL and 132 ng/mL | Plasma concentration, individual rats ([3]; single intragastric 12.5 mg/kg, 2 h): 224 ng/mL and BQL and 134 ng/mL and 35.8 ng/mL and 43.0 ng/mL | Plasma concentration, individual rats ([3]; single intragastric 12.5 mg/kg, 3 h): 84.5 ng/mL and BQL and 58.4 ng/mL and 11.3 ng/mL and 23.6 ng/mL | Plasma concentration, individual rats ([3]; single intragastric 12.5 mg/kg, 4 h): 27.3 ng/mL and BQL and 17.3 ng/mL and 10.7 ng/mL and 6.16 ng/mL | Plasma concentration, individual rats ([3]; single intragastric 12.5 mg/kg, 6 h): 5.64 ng/mL and BQL and 3.20 ng/mL and 5.66 ng/mL and 12.2 ng/mL | Plasma concentration, individual rats ([3]; single intragastric 12.5 mg/kg, 8 h): BOL and BQL (4×) | Plasma concentration, individual rats ([3]; single intravenous 2.5 mg/kg, 0.08 h, 2.5 mg/kg): 1750 ng/mL and 1150 ng/mL and 659 ng/mL and 865 ng/mL and 1350 ng/mL | Plasma concentration, individual rats ([3]; single intravenous 2.5 mg/kg, 0.25 h, 2.5 mg/kg): 628 ng/mL and 247 ng/mL and 540 ng/mL and 260 ng/mL and 291 ng/mL | Plasma concentration, individual rats ([3]; single intravenous 2.5 mg/kg, 0.50 h, 2.5 mg/kg): 243 ng/mL and 75.7 ng/mL and 225 ng/mL and 95.9 ng/mL and 120 ng/mL | Plasma concentration, individual rats ([3]; single intravenous 2.5 mg/kg, 1 h, 2.5 mg/kg): 103 ng/mL and 24.9 ng/mL and 80.2 ng/mL and 52.0 ng/mL and 41.6 ng/mL | Plasma concentration, individual rats ([3]; single intravenous 2.5 mg/kg, 2 h, 2.5 mg/kg): 25.1 ng/mL and 6.66 ng/mL and 19.3 ng/mL and 15.2 ng/mL and 17.7 ng/mL | Plasma concentration, individual rats ([3]; single intravenous 2.5 mg/kg, 3 h, 2.5 mg/kg): 8.95 ng/mL and 2.49 ng/mL and 9.76 ng/mL and 5.45 ng/mL and 7.89 ng/mL | Plasma concentration, individual rats ([3]; single intravenous 2.5 mg/kg, 4 h, 2.5 mg/kg): BQL and 3.38 ng/mL and 2.60 ng/mL and 3.08 ng/mL | Plasma concentration, individual rats ([3]; single intravenous 2.5 mg/kg, 6 h): BQL | Plasma concentration, individual rats ([3]; single intravenous 2.5 mg/kg, 8 h): BQL
